Patent US11505536B2, “Dihydroorotate dehydrogenase inhibitors” (Janssen Biotech, Inc., priority 2019, dated 2022)

Assays:
human DHODH = human DHODH (Homo sapiens (Human), UniProt Q02127); experiment: DHODH Enzymatic Assay; format: biochemical; details: purified human DHODH, DCIP absorbance, end-point mode; read-out: hDHODH IC50
Procedure, shortened: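 Purified human DHODH in […] HEPES pH 7.5, 150 mM NaCl, 0.5 mM EDTA, 0.1% Triton X-100; reaction started with substrate mix of 20 mM DHO, 5 mM CoQ6, 1 mM DCIP. End-point read as DCIP reduction (absorbance ~600 nm) after brequinar quench.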

[1] = system: MOLM-13 cells (human acute myeloid leukemia cells); experiment: MOLM-13 Cellular Assay; format: cell-based; details: Homo sapiens, MOLM-13, 72 h, 72 hours exposure, cell viability by CellTiter-Glo
Procedure, shortened: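 MOLM-13 AML cells, seeded at 5,000/well in RPMI 1640 with 10% FBS, were treated with compounds right after seeding for 72 h at 37 °C, 5% CO2. Viability read by CellTiter-Glo luminescence.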

Sequence of human DHODH (Q02127 whole entry): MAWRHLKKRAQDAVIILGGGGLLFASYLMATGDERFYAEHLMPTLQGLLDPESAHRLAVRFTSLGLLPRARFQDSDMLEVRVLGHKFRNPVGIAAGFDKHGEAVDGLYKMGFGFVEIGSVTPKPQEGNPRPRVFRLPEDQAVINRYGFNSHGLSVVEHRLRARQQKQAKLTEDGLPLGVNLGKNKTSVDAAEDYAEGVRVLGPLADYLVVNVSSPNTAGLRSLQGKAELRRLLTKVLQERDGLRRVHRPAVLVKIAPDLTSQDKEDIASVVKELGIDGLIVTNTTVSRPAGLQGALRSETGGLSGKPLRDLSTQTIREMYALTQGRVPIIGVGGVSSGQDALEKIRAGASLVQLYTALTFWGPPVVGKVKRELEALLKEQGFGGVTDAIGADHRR

| IC50 (human DHODH) [nM] | IC50 [1] [nM] | SMILES |
| --- | --- | --- |
| 1180 | 300 | CCn1c(CO)nn(-c2ccc3c(=O)n(-c4ccc([N+](=O)[O-])cc4F)cc(I)c3c2)c1=O [Example 16, 6-(4-Ethyl-3-(hydroxymethyl)-5-oxo-4,5-dihydro-1H-1,2,4-triazol-1-yl)-2-(2-fluoro-4-nitrophenyl)-4-iodoisoquinolin-1(2H)-one] |
| 19 | 7 | CCn1c(CO)nn(-c2cc3c(C(C)C)cn(C45CCC(CC4)C5)c(=O)c3cc2F)c1=O [Example 128, 2-(Bicyclo[2.2.1]heptan-1-yl)-6-(4-ethyl-3-(hydroxymethyl)-5-oxo-4,5-dihydro-1H-1,2,4-triazol-1-yl)-7-fluoro-4-isopropylisoquinolin-1(2H)-one] |
| 2.75 | 7 | CCn1c(CO)nn(-c2cc3c(C(C)C)cn(-c4c(C)ccnc4OC)c(=O)c3cc2F)c1=O [Example 50, 6-(4-Ethyl-3-(hydroxymethyl)-5-oxo-4,5-dihydro-1H-1,2,4-triazol-1-yl)-7-fluoro-4-isopropyl-2-(2-methoxy-4-methylpyridin-3-yl)isoquinolin-1(2H)-one] |
| 0.946 | 2 | C=C(C)c1cn(-c2cc(F)ccc2F)c(=O)c2cc(F)c(-n3nc(CO)n(CC)c3=O)cc12 [Example 72, 2-(2,5-Difluorophenyl)-6-(4-ethyl-3-(hydroxymethyl)-5-oxo-4,5-dihydro-1H-1,2,4-triazol-1-yl)-7-fluoro-4-(prop-1-en-2-yl)isoquinolin-1(2H)-one] |
| 0.724 | 0.4 | C=C(C)c1cn(-c2ccccc2Cl)c(=O)c2ccc(-n3nc(CO)n(CC)c3=O)cc12 [Example 14, 2-(2-Chlorophenyl)-6-(4-ethyl-3-(hydroxymethyl)-5-oxo-4,5-dihydro-1H-1,2,4-triazol-1-yl)-4-(prop-1-en-2-yl)isoquinolin-1(2H)-one] |
| 1.13 | 1 | CCn1c(CO)nn(-c2nc3c(C(C)C)cn(-c4ccccc4C(F)F)c(=O)c3cc2F)c1=O [Example 140] |
| 2.29 | 2 | C=C(C)c1cn(-c2ccccc2C(F)(F)F)c(=O)c2ccc(-n3nc(CO)n(CC)c3=O)cc12 [Example 12, 6-(4-Ethyl-3-(hydroxymethyl)-5-oxo-4,5-dihydro-1H-1,2,4-triazol-1-yl)-4-(prop-1-en-2-yl)-2-(2-(trifluoromethyl)phenyl)isoquinolin-1(2H)-one] |
| 6.1 | 7 | CCn1c(CO)nn(-c2nc3c(C(C)C)cn(-c4cc(C)ccc4F)c(=O)c3cc2F)c1=O [Example 99, 2-(4-Ethyl-3-(hydroxymethyl)-5-oxo-4,5-dihydro-1H-1,2,4-triazol-1-yl)-3-fluoro-6-(2-fluoro-5-methylphenyl)-8-isopropyl-1,6-naphthyridin-5(6H)-one] |
| 15.5 | 6 | CCn1c(CO)nn(-c2cc3c(C(C)C)cn([C@@H]4CCC[C@@H]4C)c(=O)c3cc2F)c1=O (stereo in doubt) [Example 125, 6-(4-Ethyl-3-(hydroxymethyl)-5-oxo-4,5-dihydro-1H-1,2,4-triazol-1-yl)-7-fluoro-4-isopropyl-2((1R*,2S*)-2-methylcyclopentyl)isoquinolin-1(2H)-one] |
| 0.917 | 0.4 | C=C(C)c1cn(-c2cc(C)ccc2Cl)c(=O)c2cc(F)c(-n3nc(CO)n(CC)c3=O)cc12 [Example 43, 2-(2-Chloro-5-methylphenyl)-6-(4-ethyl-3-(hydroxymethyl)-5-oxo-4,5-dihydro-1H-1,2,4-triazol-1-yl)-7-fluoro-4-(prop-1-en-2-yl)isoquinolin-1(2H)-one] |
| 1.65 | 1 | CCn1c(CO)nn(-c2ccc3c(=O)n(-c4c(F)cccc4Cl)cc(C4(C)CC4)c3c2)c1=O [Example 24, 2-(2-Chloro-6-fluorophenyl)-6-(4-ethyl-3-(hydroxymethyl)-5-oxo-4,5-dihydro-1H-1,2,4-triazol-1-yl)-4-(1-methylcyclopropyl)isoquinolin-1(2H)-one] |
| 70.7 | > 100 | CCn1c(CO)nn(-c2cc3c(C(C)C)cn(-c4nnccc4C)c(=O)c3cc2F)c1=O [Example 100, 6-(4-Ethyl-3-(hydroxymethyl)-5-oxo-4,5-dihydro-1H-1,2,4-triazol-1-yl)-7-fluoro 4-isopropyl-2-(4-methylpyridazin-3-yl)isoquinolin-1(2H)-one] |
| 1.32 | 1 | CCn1c(CO)nn(-c2cc3c(C(C)C)cn([C@H]4CCC[C@H]4C)c(=O)c3cc2F)c1=O (stereo in doubt) [Example 126, 6-(4-Ethyl-3-(hydroxymethyl)-5-oxo-4,5-dihydro-1H-1,2,4-triazol-1-yl)-7-fluoro-4-isopropyl-2-((1S*,2R*)-2-methylcyclopentyl)isoquinolin-1(2H)-one] |
| 2.02 | 10 | C=C(C)c1cn(-c2c(C)cnc(OC)c2C)c(=O)c2cc(F)c(-n3nc(CO)n(CC)c3=O)cc12 [Example 71, 6-(4-Ethyl-3-(hydroxymethyl)-5-oxo-4,5-dihydro-1H-1,2,4-triazol-1-yl)-7-fluoro-2-(2-methoxy-3,5-dimethylpyridin-4-yl)-4-(prop-1-en-2-yl)isoquinolin-1(2H)-one] |
| 0.836 | 2 | C=C(C)c1cn(-c2c(C)cnc(OC)c2Cl)c(=O)c2cc(F)c(-n3nc(CO)n(CC)c3=O)cc12 [Example 62, 2-(3-Chloro-2-methoxy-5-methylpyridin-4-yl)-6-(4-ethyl-3-(hydroxymethyl)-5-oxo-4,5-dihydro-1H-1,2,4-triazol-1-yl)-7-fluoro-4-(prop-1-en-2-yl)isoquinolin-1(2H)-one] |
| 11.6 | 3 | CCn1c(CO)nn(-c2cc3c(C(C)C)cn([C@H]4CCCC[C@H]4C)c(=O)c3cc2F)c1=O [Example 114, 6-(4-Ethyl-3-(hydroxymethyl)-5-oxo-4,5-dihydro-1H-1,2,4-triazol-1-yl)-7-fluoro-4-isopropyl-2-((1S,2R)-2-methylcyclohexyl)isoquinolin-1(2H)-one] |
| 10.1 | 10 | CCn1c(CO)nn(-c2cc3c(C(C)C)cn([C@H]4CC[C@@H](OC)C4)c(=O)c3cc2F)c1=O (racemic) [Example 119, Racemic 6-(4-Ethyl-3-(hydroxymethyl)-5-oxo-4,5-dihydro-1H-1,2,4-triazol-1-yl)-7-fluoro-4-isopropyl-2-((cis)-3-methoxycyclopentyl)isoquinolin-1(2H)-one] |
| 4.88 | 10 | CCn1c(CO)nn(-c2cc3c(C(C)C)cn(-c4ccnc(OC)c4Cl)c(=O)c3cc2F)c1=O [Example 106, 2-(3-Chloro-2-methoxypyridin-4-yl)-6-(4-ethyl-3-(hydroxymethyl)-5-oxo-4,5-dihydro-1H-1,2,4-triazol-1-yl)-7-fluoro-4-isopropylisoquinolin-1(2H)-one] |
| 0.802 | 0.8 | CCn1c(CO)nn(-c2nc3c(C(C)C)cn(-c4ccccc4C)c(=O)c3cc2F)c1=O [Example 40, 2-(4-Ethyl-3-(hydroxymethyl)-5-oxo-4,5-dihydro-1H-1,2,4-triazol-1-yl)-3-fluoro-8-isopropyl-6-(o-tolyl)-1,6-naphthyridin-5(6H)-one] |
| 11.5 | 5 | CCn1c(CO)nn(-c2ccc3c(=O)n(-c4c(F)cccc4Cl)cc(C4CC4)c3c2)c1=O [Example 9, 2-(2-Chloro-6-fluorophenyl)-4-cyclopropyl-6-(4-ethyl-3-(hydroxymethyl)-5-oxo-4,5-dihydro-1H-1,2,4-triazol-1-yl)isoquinolin-1(2H)-one] |
| 7.41 | 4 | CCn1c(CO)nn(-c2cc3c(C(C)C)cn([C@H]4CCCC[C@@H]4C)c(=O)c3cc2F)c1=O (stereo in doubt) [Example 121, 6-(4-Ethyl-3-(hydroxymethyl)-5-oxo-4,5-dihydro-1H-1,2,4-triazol-1-yl)-7-fluoro-4-isopropyl-2-((1S*,2S*)-2-methylcyclohexyl)isoquinolin-1(2H)-one] |
| 3.57 | 3 | CCn1c(CO)nn(-c2cc3c(C(C)C)cn(-c4c(C)ccnc4Cl)c(=O)c3cc2F)c1=O [Example 23, 2-(2-Chloro-4-methylpyridin-3-yl)-6-(4-ethyl-3-(hydroxymethyl)-5-oxo-4,5-dihydro-1H-1,2,4-triazol-1-yl)-7-fluoro-4-isopropylisoquinolin-1(2H)-one] |
| 1.41 | 0.3 | C=C(C)c1cn(-c2ccccc2Cl)c(=O)c2cc(F)c(-n3nc(CO)n(CC)c3=O)cc12 [Example 45, 2-(2-Chlorophenyl)-6-(4-ethyl-3-(hydroxymethyl)-5-oxo-4,5-dihydro-1H-1,2,4-triazol-1-yl)-7-fluoro-4-(prop-1-en-2-yl)isoquinolin-1(2H)-one] |
| 3.46 | 2 | CCn1c(CO)nn(-c2ccc3c(=O)n(-c4c(F)cccc4Cl)cc(C(C)C)c3c2)c1=O [Example 3, 2-(2-Chloro-6-fluorophenyl)-6-(4-ethyl-3-(hydroxymethyl)-5-oxo-4,5-dihydro-1H-1,2,4-triazol-1-yl)-4-isopropylisoquinolin-1(2H)-one] |
| 1.19 | 3 | C=C(C)c1cn(-c2cccc(F)c2C)c(=O)c2cc(F)c(-n3nc(CO)n(CC)c3=O)cc12 [Example 86, 6-(4-Ethyl-3-(hydroxymethyl)-5-oxo-4,5-dihydro-1H-1,2,4-triazol-1-yl)-7-fluoro-2-(3-fluoro-2-methylphenyl)-4-(prop-1-en-2-yl)isoquinolin-1(2H)-one] |
| 0.772 | 1 | CCn1c(CO)nn(-c2cc3c(C(C)C)cn(-c4ccccc4OC)c(=O)c3cc2F)c1=O [Example 95, 6-(4-Ethyl-3-(hydroxymethyl)-5-oxo-4,5-dihydro-1H-1,2,4-triazol-1-yl)-7-fluoro-4-isopropyl-2-(2-methoxyphenyl)isoquinolin-1(2H)-one] |
